# Experimental data reported in US20190209567A1, “A Specific Trifluoroethyl Quinoline Analogue For Use In The Treatment of APDS” (UCB Biopharma SPRL, priority 2016, published 2019).
# Like-named read-outs stand apart in the source and are kept apart here.
# Key:
# [1] = test system: pAKT^S473 (PI3K signalling) in T cell lymphoblasts; assay: pAKT^S473 expression in T cell lymphoblast cultures by flow cytometry, with and without OKT3 activation; type: cell-based, human; settings: for IC50: Homo sapiens, T-cell
# Description: (§1) The activity of N—{(R)-1-[8-Chloro-2-(1-oxypyridin-3-yl)quinolin-3-yl]-2,2,2-trifluoroethyl}pyrido[3,2-d]pyrimidin-4-ylamine [hereinafter referred to as “Compound (A)”] on PI3K signalling was assessed by measuring levels of either phosphorylated serine 473 of AKT (pAKT^S473) or phosphorylated serine 235/236 of ribosomal protein S6 (pS6^S235/236) using flow cytometry. The results obtained are depicted in the accompanying drawings, in which:
# Analysis of phosphorylated AKT at Ser 473 (pAKT^S473) levels in T cell lymphoblast cultures by flow cytometry was performed with peripheral blood lymphocytes from healthy donors, and from APDS1 and APDS2 patients, with and without T cell receptor activation.
# Generation of T cell lymphoblasts was performed in accordance with the method described by M-C. Deau et al. in J. Clin. Invest., 2014, 124, 3923-3928. In brief, peripheral blood mononuclear cells were isolated by Ficoll-Paque density gradient centrifugation (Pharmacia Biotech; catalogue no. #171-44003) and washed twice with RPMI 1640 GlutaMax medium (Invitrogen). T cell lymphoblasts were obtained by stimulating 1×10^6 cells per mL in RPMI 1640 GlutaMax medium supplemented with 10% human AB serum, penicillin/streptomycin (Invitrogen), PMA (phorbol 12-myristate 13-acetate; 20 ng/mL; Sigma-Aldrich) and ionomycin (1 μmol/L). After 2 to 3 days of activation, viable cells were separated by Ficoll-Paque density-gradient centrifugation and washed twice with RPMI 1640 GlutaMax medium, then cultured in RPMI 1640 GlutaMax medium supplemented with 10% human AB serum and 100 U/mL pro-IL2.
# Analysis of phosphorylated AKT at Ser 473 levels in T cell lymphoblast cultures was performed once sufficient cells were available for the analysis (e.g. 6-12 days after starting the culture with pro-IL2).
# The activity of Compound (A) was assessed in (i) the absence or (ii) the presence of T cell activation by receptor cross-linking with OKT3:
# (i) Incubation of APDS1 and APDS2 patient cells for 30 minutes with Compound (A) at different concentrations (0, 1, 3, 10, 30, 100 and 200 nM). A positive control for pAKT staining (simulated cells with OKT3) was included (8×10^6 cells/patient).
# (ii) Incubation of APDS1 and APDS2 patient cells for 30 minutes with Compound (A) at different concentrations (0, 1, 3, 10, 30, 100 and 200 nM) stimulated with anti-CD3 (OKT3; T cell receptor activation).
# Corresponding assays were performed with T cell lymphoblasts derived from healthy donors (CTRL).
# [2] = test system: pS6^S235/236 (PI3K signalling) in T cell subsets in whole blood; assay: Ex vivo pS6^S235/236 expression in T cell subsets in whole blood by flow cytometry; type: cell-based, human; settings: for IC50: Homo sapiens, T-cell
# Description: as §1
# The levels of pS6^S235/236 in different T cell (CD3+CD4+; CD3+CD8+) subsets in total blood from healthy donors, and from APDS1 and APDS2 patients, were analyzed by flow cytometry. The blood was incubated ex vivo for 45 minutes at 37° C. with different doses of Compound (A) (0, 10, 30, 100, 300, 1000 and 2000 nM).
# The phosphorylation of ribosomal protein S6 at Ser 235/236 (pS6^S235/236) in cells from healthy donors, and from APDS1 and APDS2 patients, was analyzed ex vivo in the presence and absence of Compound (A) (10-2000 nM) in different T cell (CD3+CD4+; CD3+CD8+) subsets. As noted above, total blood was incubated ex vivo for 45 minutes at 37° C.
# Data were generated with blood from two (2) healthy donors, three (3) APDS1 patients and one (1) APDS2 patient.
# [3] = APD001 Phase 1b open-label 12-week clinical study in APDS1 and APDS2 patients; type: in vivo, human; settings: 12 weeks of treatment
# From the text: APD001 is an ongoing Phase 1b, multicentre, open-label, 12-week study to assess the efficacy, safety and tolerability of Compound (A) in male and female adolescents (aged from 12 to 18 years) and adults with APDS1 and APDS2.
compound,measurement,setting,value
"[O-][n+]1cccc(-c2nc3c(Cl)cccc3cc2[C@@H](Nc2ncnc3cccnc23)C(F)(F)F)c1 [Compound (A), N—{(R)-1-[8-Chloro-2-(1-oxypyridin-3-yl)quinolin-3-yl]-2,2,2-trifluoroethyl}pyrido[3,2-d]pyrimidin-4-ylamine]",IC50,"[1]; APDS1 and APDS2 patient-derived T cell lymphoblasts, absence of T cell activation by OKT3, read-out: IC50 range, pAKT expression",0.003 to 0.02 µM
same,IC50,"[1]; APDS1 and APDS2 patient-derived T cell lymphoblasts, presence of T cell activation by OKT3, read-out: IC50 range, pAKT expression",0.007 to 0.05 µM
same,IC50,"[1]; T lymphoblasts from 3 APDS1 patients, OKT3 +, read-out: Geomean IC50, inhibition of pAKT^S473 expression",0.021 µM
same,IC50,"[1]; T lymphoblasts from 3 APDS1 patients, OKT3 +, read-out: Range of IC50, inhibition of pAKT^S473 expression",0.007 to 0.05 µM
same,IC50,"[1]; T lymphoblasts from 3 APDS1 patients, OKT3 −, read-out: Geomean IC50, inhibition of pAKT^S473 expression",0.008 µM
same,IC50,"[1]; T lymphoblasts from 3 APDS1 patients, OKT3 −, read-out: Range of IC50, inhibition of pAKT^S473 expression",0.003 to 0.012 µM
same,IC50,"[1]; T lymphoblasts from 3 APDS2 patients, OKT3 +, read-out: Geomean IC50, inhibition of pAKT^S473 expression",0.028 µM
same,IC50,"[1]; T lymphoblasts from 3 APDS2 patients, OKT3 +, read-out: Range of IC50, inhibition of pAKT^S473 expression",0.021 to 0.033 µM
same,IC50,"[1]; T lymphoblasts from 3 APDS2 patients, OKT3 −, read-out: Geomean IC50, inhibition of pAKT^S473 expression",0.013 µM
same,IC50,"[1]; T lymphoblasts from 3 APDS2 patients, OKT3 −, read-out: Range of IC50, inhibition of pAKT^S473 expression",0.008 to 0.02 µM
same,IC50,"[1]; T lymphoblasts from 3 healthy donors, OKT3 +, read-out: Geomean IC50, inhibition of pAKT^S473 expression",0.016 µM
same,IC50,"[1]; T lymphoblasts from 3 healthy donors, OKT3 +, read-out: Range of IC50, inhibition of pAKT^S473 expression",0.009 to 0.05 µM
same,Inhibition of pAKT^S473 expression (in words),[1]; basal and activated T lymphoblast cultures,potently inhibited
same,Inhibition of pS6^S235/236 expression (in words),"[2]; CD3+ and CD8+ cells, one APDS2 patient",showed potent inhibition
same,IC50,"[2]; CD3+ and CD8+ cells, one APDS2 patient, based on concentration-response curves, read-out: IC50, inhibition of pS6^S235/236 expression",≤ 0.1 µM
same,IC50,"[2]; CD3+ cells, 3 APDS1 patients, read-out: Geomean IC50 (adjusted for free concentration), pS6^S235/236 expression",0.051 µM
same,IC50,"[2]; CD3+ cells, 3 APDS1 patients, read-out: Range of IC50 (adjusted for free concentration), pS6^S235/236 expression",0.036 to 0.067 µM
same,IC50,"[2]; CD4+ cells, 3 APDS1 patients, read-out: Geomean IC50 (adjusted for free concentration), pS6^S235/236 expression",0.041 µM
same,IC50,"[2]; CD4+ cells, 3 APDS1 patients, read-out: Range of IC50 (adjusted for free concentration), pS6^S235/236 expression",0.029 to 0.056 µM
same,IC50,"[2]; CD8+ cells, 3 APDS1 patients, read-out: Geomean IC50 (adjusted for free concentration), pS6^S235/236 expression",0.056 µM
same,IC50,"[2]; CD8+ cells, 3 APDS1 patients, read-out: Range of IC50 (adjusted for free concentration), pS6^S235/236 expression",0.04 to 0.072 µM
same,Inhibition of pS6^S235/236 signal (in words),"[2]; three T cell subsets, three APDS1 patients",showed inhibition
same,Tolerability,[3]; APDS patients,well tolerated
same,Clinical outcome,[3]; three APDS patients,some clinical and immunological improvements together with disease activity improvement
